Patent US10668052B2, “Combinations of isomers of dihydrotetrabenazine” (ADEPTIO PHARMACEUTICALS LIMITED, priority 2017, dated 2020)
“Also recorded” adds a separate entry of the source. Read-outs that look alike come from different tables or passages of the source.

Columns and labels:
[1] = Pharmacokinetic study of tetrabenazine and dihydrotetrabenazine metabolites in plasma after oral tetrabenazine 25 mg tablets; format: in vivo, human; conditions: for metabolite of tetrabenazine in humans (major/minor): after administration of tetrabenazine; for Cmax / AUC / Tmax / AUC(0-t) / AUC(0-inf) / half-life: human, plasma; for AUC: read-out: area under the curve (AUC); for Tmax: N=08, healthy adult male volunteers; for AUC(0-t): po; for Kel: unit inferred
Protocol: A pharmacokinetic study was carried out in healthy adult male volunteers under fasting conditions at a dose of single and multiple oral administration of 25 mg tablets once a day to ascertain the plasma levels of +/−α and +/−β dihydrotetrabenazine.
Table 1 summarises the pharmacokinetic data obtained following single-dose oral administration of tetrabenazine at a dose level of 25 mg (fasting, N=08).
Table 2 summarises the pharmacokinetic data obtained following multiple-dose oral administration of tetrabenazine at a dose level of 25 mg (fasting, N=07).

[2] = test system: amphetamine induced locomotor activity in male CD rats; conditions: for total distance travelled: normalised
Protocol: Male CD (Charles River Laboratories, Germany) at weight range of 200-250 g (165-200 g upon arrival) were used for the experiments. Animals were housed at a standard temperature (22±1° C.) and in a light-controlled environment (lights on from 7 am to 8 pm) with ad libitum access to food and water.
The locomotor activity of the rats was tested in an open field arena. The open field test was performed during the rat light cycle and under a normal lighting evenly distributed to the test chambers. The paths of the rats were recorded by activity monitor (Med. Associates Inc.).
The rats were placed in the centre of the arena, and the path was recorded for 30 minutes. After 30 minutes of testing, vehicle or amphetamine was dosed and the rat was placed in the centre of the arena, and the path was recorded for 60 minutes, the total testing time being 90 minutes.

[3] = target: Chromaffin Granule Monoamine Transporter (Bos taurus, UniProt Q27963); conditions: racemic isomers, in vitro; cited from earlier work
Sequence of Chromaffin Granule Monoamine Transporter (Q27963 whole entry): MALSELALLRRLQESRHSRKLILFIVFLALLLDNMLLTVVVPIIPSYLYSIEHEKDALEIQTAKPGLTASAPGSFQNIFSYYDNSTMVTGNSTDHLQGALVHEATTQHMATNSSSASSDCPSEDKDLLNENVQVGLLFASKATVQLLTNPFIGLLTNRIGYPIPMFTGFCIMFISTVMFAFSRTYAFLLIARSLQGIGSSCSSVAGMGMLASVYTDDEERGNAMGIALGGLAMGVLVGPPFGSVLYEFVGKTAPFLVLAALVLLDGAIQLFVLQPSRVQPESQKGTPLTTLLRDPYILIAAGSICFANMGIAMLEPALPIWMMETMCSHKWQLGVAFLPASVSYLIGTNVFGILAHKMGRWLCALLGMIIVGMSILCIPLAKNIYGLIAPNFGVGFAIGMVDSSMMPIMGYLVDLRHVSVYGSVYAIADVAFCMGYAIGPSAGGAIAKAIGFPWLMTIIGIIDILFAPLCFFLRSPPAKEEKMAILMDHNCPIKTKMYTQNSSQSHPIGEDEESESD

[4] = oral, 25 mg, single dose study, tetrabenazine to adult male humans
[5] = single-dose oral tetrabenazine 25 mg, fasting
[6] = male, 25 mg, multiple-dose oral tetrabenazine 25 mg once a day, fasting, N=07
[7] = male, 25 mg, single-dose oral tetrabenazine 25 mg, fasting, N=08
[8] = male, single-dose oral tetrabenazine 25 mg, fasting, N=08
[9] = multiple-dose oral tetrabenazine 25 mg once a day, fasting, N=07
[10] = single-dose oral tetrabenazine 25 mg, fasting, N=08
[11] = Study 4, 1 mg/kg, compared to vehicle-amphetamine group
[12] = Study 6, each isomer 1 mg/kg, risperidone 1 mg/kg, compared to vehicle-amphetamine group, unnormalised

| Compound | Cmax [1, 4] [ng/mL] | AUC [1, 4] [ng·h/mL] | Tmax [1, 5] [h] | AUC(0-t) [1, 6] [ng·h/mL] | AUC(0-t) [1, 7] [ng·h/mL] | AUC(0-inf) [1, 8] [ng·h/mL] | Cmax [1, 8] [ng/mL] | half-life [1, 8] [h] | Cmaxss [1, 9] [ng/mL] | Cminss [1, 9] [ng/mL] | Ctss [1, 9] [ng/mL] | Tmaxss Mean [1, 9] [h] | Extrapolated AUC [1, 10] [%] | Kel [1, 10] [h⁻¹] | other results |
| --- | --- | --- | --- | --- | --- | --- | --- | --- | --- | --- | --- | --- | --- | --- | --- |
| COc1cc2c(cc1OC)[C@H]1C[C@@H](O)[C@H](CC(C)C)CN1CC2 [(+)-α-DHTBZ, (2R,3R,11bR)-3-isobutyl-9,10-dimethoxy-1,3,4,6,7,11b-hexahydro-2H-pyrido[2,1,a]isoquinolin-2-ol] | 2.61 | 7.98 | 1.16 | 13.7 | 7.98 | 10.8 | 2.61 | 4.79 | 3.31 | 0.00 | 0.44 | 97.18 | 32.10 | 0.17 | metabolite of tetrabenazine in humans (major/minor) [1]: minor metabolites |
| Cc1nc2n(c(=O)c1CCN1CCC(c3noc4cc(F)ccc34)CC1)CCCC2 [risperidone, reference compound] | – | – | – | – | – | – | – | – | – | – | – | – | – | – | total distance travelled ([2]; Study 1, 1 mg/kg, compared to vehicle-amphetamine group): significantly different; locomotor activity [2, 11]: lower locomotor activity; stereotypic behaviour [2, 11]: reduced stereotypic behaviour; total distance travelled / locomotor activity [2, 12]: lower locomotor activity; total stereotypic behaviour [2, 12]: reduced stereotypic behaviour |
| α-dihydrotetrabenazine | – | – | – | – | – | – | – | – | – | – | – | – | – | – | affinity relative to the β-isomer [3]: 3- to 4 fold |

The next lines start with results.

| Cmax [1, 4] [ng/mL] | AUC [1, 4] [ng·h/mL] | Tmax [1, 5] [h] | AUC(0-t) [1, 6] [ng·h/mL] | AUC(0-t) [1, 7] [ng·h/mL] | AUC(0-inf) [1, 8] [ng·h/mL] | Cmax [1, 8] [ng/mL] | half-life [1, 8] [h] | Cmaxss [1, 9] [ng/mL] | Cminss [1, 9] [ng/mL] | Ctss [1, 9] [ng/mL] | Tmaxss Mean [1, 9] [h] | Extrapolated AUC [1, 10] [%] | Kel [1, 10] [h⁻¹] | Compound | other results |
| --- | --- | --- | --- | --- | --- | --- | --- | --- | --- | --- | --- | --- | --- | --- | --- |
| 72.9 | 306 | 0.938 | 474 | 306 | 352 | 72.9 | 7.89 | 98.34 | 5.61 | 6.10 | 96.96 | 10.59 | 0.1 | COc1cc2c(cc1OC)[C@@H]1C[C@H](O)[C@@H](CC(C)C)CN1CC2 [(−)-α-DHTBZ, (2S,3S,11bS)-3-isobutyl-9,10-dimethoxy-1,3,4,6,7,11b-hexahydro-2H-pyrido[2,1,a]isoquinolin-2-ol] | metabolite of tetrabenazine in humans (major/minor) ([1]; listed as (−)-α-dihydrotetrabenazine): major metabolites; also recorded: main metabolites; total stereotypic behaviour ([2]; Study 1, 2.5 mg/kg, compared to vehicle-amphetamine group): did not lead to lower locomotor activity or reduced stereotypic behaviour; total distance travelled / locomotor activity ([2]; Study 1, 2.5 mg/kg, compared to vehicle-amphetamine group, listed as (−)-α-isomer, 2.5 mg/kg): very little, if any, reduction in induced locomotor activity; total distance travelled ([2]; Study 1, 2.5 mg/kg, compared to vehicle-vehicle group): significantly different; observed behaviour of the rats ([2]; rat, in vivo, 2.5 mg/kg): less focused on what was going on around them |
| – | – | 0.87 | 2.79 | 1.87 | 2.42 | 0.58 | 4.35 | 0.73 | 0.01 | – | 96.89 | 27.54 | 0.19 | COc1cc2c(cc1OC)C1CC(=O)C(CC(C)C)CN1CC2 (racemic) [Tetrabenazine, 1,3,4,6,7,11b-hexahydro-9,10-dimethoxy-3-(2-methylpropyl)-2H-benzo(a)quinolizin-2-one] | – |
| 103 | 376 | 1.12 | 599 | 376 | 410 | 103 | 5.8 | 144.76 | 5.45 | 5.54 | 97.11 | 5.03 | 0.13 | COc1cc2c(cc1OC)[C@H]1C[C@H](O)[C@H](CC(C)C)CN1CC2 [(+)-β-DHTBZ, (2S,3R,11bR)-3-isobutyl-9,10-dimethoxy-1,3,4,6,7,11b-hexahydro-2H-pyrido[2,1,a]isoquinolin-2-ol] | metabolite of tetrabenazine in humans (major/minor) ([1]; listed as (+)-β-dihydrotetrabenazine): major metabolites; also recorded: main metabolites |
